Laboratory results published in PubChem BioAssay (NCI).
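Following 48 hours of exposure in 96-well plates, responses at five concentrations were used to interpolate endpoints linearly. TGI denotes the concentration required for complete inhibition of growth.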

Assays:
Experiment in all cases: inhibition of tumour cell growth, NCI panel, 48 h
M14 melanoma = test system: M14 melanoma
HCT-15 colon = test system: HCT-15 colon
CCRF-CEM leukemia = test system: CCRF-CEM leukemia
SK-MEL-2 melanoma = test system: SK-MEL-2 melanoma
786-0 renal = test system: 786-0 renal
NCI-H23 lung = test system: NCI-H23 lung
OVCAR-5 ovarian = test system: OVCAR-5 ovarian
MALME-3M melanoma = test system: MALME-3M melanoma
HOP-62 NSCLC = test system: HOP-62 NSCLC
U251 CNS = test system: U251 CNS
OVCAR-3 ovarian = test system: OVCAR-3 ovarian
SK-OV-3 ovarian = test system: SK-OV-3 ovarian
NCI-H226 lung = test system: NCI-H226 lung

Q: For CC(=O)Nc1c(C)cc(OCC(=O)O)cc1C, which TGI (M14 melanoma) is on record?
A: > 100 µM

Q: And the TGI (HCT-15 colon)?
A: > 100 µM

Q: And the TGI (CCRF-CEM leukemia)?
A: > 100 µM

Q: And the TGI (SK-MEL-2 melanoma)?
A: > 100 µM

Q: And the TGI (786-0 renal)?
A: > 100 µM

Q: What about the TGI (NCI-H23 lung) of the same compound?
A: > 100 µM

Q: And the TGI (OVCAR-5 ovarian)?
A: > 100 µM

Q: What about the TGI (MALME-3M melanoma) of the same compound?
A: > 100 µM

Q: What about the TGI (HOP-62 NSCLC) of the same compound?
A: > 100 µM

Q: And the TGI (U251 CNS)?
A: > 100 µM

Q: What about the TGI (OVCAR-3 ovarian) of the same compound?
A: > 100 µM

Q: What about the TGI (SK-OV-3 ovarian) of the same compound?
A: > 100 µM

Q: And the TGI (NCI-H226 lung)?
A: > 100 µM

Q: For CCN(CC)c1ccc(/C=C/C2=NN(c3cccc(S(=O)(=O)O)c3)C3(C2)C(Cl)C(=O)N3c2nc3ccccc3s2)cc1 (centres undefined), which TGI (M14 melanoma) is on record?
A: 28.1 µM

Q: What about the TGI (HCT-15 colon) of the same compound?
A: 24.1 µM

Q: And the TGI (CCRF-CEM leukemia)?
A: 4.47 µM

Q: What about the TGI (SK-MEL-2 melanoma) of the same compound?
A: 29.3 µM

Q: What about the TGI (786-0 renal) of the same compound?
A: 15.9 µM

Q: And the TGI (NCI-H23 lung)?
A: 22.8 µM

Q: And the TGI (OVCAR-5 ovarian)?
A: 58.7 µM

Q: What about the TGI (MALME-3M melanoma) of the same compound?
A: 24.9 µM

Q: And the TGI (HOP-62 NSCLC)?
A: 22.9 µM

Q: And the TGI (U251 CNS)?
A: 15.5 µM

Q: And the TGI (OVCAR-3 ovarian)?
A: 17.4 µM

Q: What about the TGI (SK-OV-3 ovarian) of the same compound?
A: 39.3 µM

Q: And the TGI (NCI-H226 lung)?
A: 34.2 µM

Q: Which results are given for Cc1ccc(S(=O)(=O)N(c2ccccc2F)C2CCCCC2O)cc1 (centres undefined)?
A: TGI (M14 melanoma): > 100 µM; TGI (HCT-15 colon): > 100 µM; TGI (CCRF-CEM leukemia): > 100 µM; TGI (SK-MEL-2 melanoma): 93.7 µM; TGI (786-0 renal): > 100 µM; TGI (NCI-H23 lung): > 100 µM; TGI (OVCAR-5 ovarian): > 100 µM; TGI (MALME-3M melanoma): > 100 µM; TGI (HOP-62 NSCLC): > 100 µM; TGI (U251 CNS): > 100 µM; TGI (OVCAR-3 ovarian): 66.9 µM; TGI (SK-OV-3 ovarian): 64 µM; TGI (NCI-H226 lung): > 100 µM

Q: Which TGI (M14 melanoma) does the source give for NN/C(=N\S(=O)(=O)c1cc(Cl)c(Oc2ccc([N+](=O)[O-])cc2Cl)c(Cl)c1)Nc1ccc(Cl)cc1 here?
A: 31.2 µM

Q: And the TGI (HCT-15 colon)?
A: 41.7 µM

Q: And the TGI (CCRF-CEM leukemia)?
A: 37.5 µM

Q: What about the TGI (SK-MEL-2 melanoma) of the same compound?
A: 35.3 µM

Q: What about the TGI (786-0 renal) of the same compound?
A: 36.8 µM

Q: What about the TGI (NCI-H23 lung) of the same compound?
A: 31.4 µM

Q: And the TGI (OVCAR-5 ovarian)?
A: 55 µM

Q: And the TGI (MALME-3M melanoma)?
A: 37.2 µM

Q: And the TGI (HOP-62 NSCLC)?
A: 41 µM

Q: What about the TGI (U251 CNS) of the same compound?
A: 30.8 µM

Q: And the TGI (OVCAR-3 ovarian)?
A: 33 µM

Q: What about the TGI (SK-OV-3 ovarian) of the same compound?
A: > 100 µM

Q: And the TGI (NCI-H226 lung)?
A: 33.4 µM

Q: For O=C(Nc1ccccc1)N1CCNC1=S, which TGI (M14 melanoma) is on record?
A: > 100 µM

Q: And the TGI (HCT-15 colon)?
A: > 100 µM

Q: And the TGI (CCRF-CEM leukemia)?
A: > 100 µM

Q: What about the TGI (SK-MEL-2 melanoma) of the same compound?
A: > 100 µM

Q: And the TGI (786-0 renal)?
A: > 100 µM

Q: What about the TGI (NCI-H23 lung) of the same compound?
A: > 100 µM

Q: What about the TGI (OVCAR-5 ovarian) of the same compound?
A: > 100 µM

Q: And the TGI (MALME-3M melanoma)?
A: > 100 µM

Q: And the TGI (HOP-62 NSCLC)?
A: > 100 µM

Q: And the TGI (U251 CNS)?
A: > 100 µM

Q: And the TGI (OVCAR-3 ovarian)?
A: > 100 µM

Q: What about the TGI (SK-OV-3 ovarian) of the same compound?
A: > 100 µM

Q: What about the TGI (NCI-H226 lung) of the same compound?
A: > 100 µM

Q: Which TGI (M14 melanoma) does the source give for CC(=O)Nc1ccc(-c2nnc(SCC(=O)Nc3ccccc3Cl)o2)cc1 here?
A: > 100 µM

Q: What about the TGI (HCT-15 colon) of the same compound?
A: > 100 µM

Q: And the TGI (CCRF-CEM leukemia)?
A: > 100 µM

Q: And the TGI (SK-MEL-2 melanoma)?
A: > 100 µM

Q: And the TGI (786-0 renal)?
A: > 100 µM

Q: What about the TGI (NCI-H23 lung) of the same compound?
A: > 100 µM

Q: What about the TGI (OVCAR-5 ovarian) of the same compound?
A: > 100 µM

Q: What about the TGI (MALME-3M melanoma) of the same compound?
A: > 100 µM

Q: What about the TGI (HOP-62 NSCLC) of the same compound?
A: > 100 µM

Q: And the TGI (U251 CNS)?
A: > 100 µM

Q: What about the TGI (OVCAR-3 ovarian) of the same compound?
A: > 100 µM

Q: And the TGI (SK-OV-3 ovarian)?
A: > 100 µM

Q: What about the TGI (NCI-H226 lung) of the same compound?
A: > 100 µM

Q: Which results are given for O=C1/C(=C/c2cccc([N+](=O)[O-])c2)CCCc2ccccc21?
A: TGI (M14 melanoma): 26.7 µM; TGI (HCT-15 colon): 23 µM; TGI (CCRF-CEM leukemia): 10.5 µM; TGI (SK-MEL-2 melanoma): 23 µM; TGI (786-0 renal): 26.6 µM; TGI (NCI-H23 lung): 31.4 µM; TGI (OVCAR-5 ovarian): 27.6 µM; TGI (MALME-3M melanoma): 22.2 µM; TGI (HOP-62 NSCLC): 29.3 µM; TGI (U251 CNS): 20.9 µM; TGI (OVCAR-3 ovarian): 26.5 µM; TGI (SK-OV-3 ovarian): 63.8 µM; TGI (NCI-H226 lung): 33.2 µM

Q: Which results are given for CCC(=O)N(c1ccccc1)C(C)CN1CCC(O)(c2ccccc2)CC1 (centres undefined)?
A: TGI (M14 melanoma): > 100 µM; TGI (HCT-15 colon): > 100 µM; TGI (CCRF-CEM leukemia): > 100 µM; TGI (SK-MEL-2 melanoma): > 100 µM; TGI (786-0 renal): > 100 µM; TGI (NCI-H23 lung): > 100 µM; TGI (OVCAR-5 ovarian): > 100 µM; TGI (MALME-3M melanoma): > 100 µM; TGI (HOP-62 NSCLC): > 100 µM; TGI (U251 CNS): > 100 µM; TGI (OVCAR-3 ovarian): > 100 µM; TGI (SK-OV-3 ovarian): > 100 µM; TGI (NCI-H226 lung): > 100 µM
